Experimental data taken from patent US12570670B2, “Compounds, compositions, and methods for treating fibrosis” (YALE UNIVERSITY, priority 2019, dated 2026).
Read-outs that look alike come from different tables or passages of the source.

Tests used:
JNK [1] = experiment: JNK activation in C2C12 myoblasts (pMAPK/MAPK immunoblot); type: cell-based, mouse
Experimental: (§1) C2C12 myoblasts were cultured as described previously. Substantively, wild type (mkp-5^+/+) and MKP5-deficient (mkp-5^−/−) mouse embryo fibroblasts (MEFs) were generated from female mice at days 13-14 of pregnancy and established by spontaneous immortalization. C2C12 myoblasts and MEFs were treated with 1 at the indicated concentrations for 24 h. For immunoblotting, C2C12 myoblasts or MKP5 wild type and MKP5-deficient fibroblasts were lysed on ice in lysis buffer and clarified by centrifugation at 20,800×g at 4° C. for 20 min. Protein concentration was determined using BCA reagent according to the manufacturer's instructions (Pierce). Recombinant human TGF-β1 (240-B-002) was purchased from R&D Systems. For phospho-MAPK and MAPK immunoblotting, lysates were resolved by SDS-PAGE and transferred onto nitrocellulose membranes (Bio-Rad). Membranes were blocked with 5% nonfat dry milk or 5% BSA in Tris-buffered saline/Tween 20 (TBS-T) for 1 h at room temperature or overnight at 4° C. Primary antibodies were diluted in 5% BSA or 5% nonfat dry milk in TBS-T. MAPK and Smad2 activation were calculated as the ratio of the indicated phosphorylated MAPK or phosphorylated Smad2 to total MAPK or Smad2, respectively by direct fluorescence quantitation using the Odyssey CLx Imaging System. Images were processed with the LI-COR Image Studio Software.

ERK1/2 [2] = experiment: ERK1/2 activation in C2C12 myoblasts (pMAPK/MAPK immunoblot); type: cell-based, mouse; details: even at the highest concentration
Experimental: as §1

ERK1/2 [3] = experiment: ERK1/2 phosphorylation in wild type MEFs; type: cell-based, mouse
Experimental: as §1

[4] = target: T1, catalytic domain of MKP1 (MKP1-CD) (Homo sapiens, UniProt P28562); experiment: Malachite green assay of MKP1-CD; type: biochemical
T1 construct: MKP1-CD (human aa 172-314); purchased ARVYS Proteins (Trumbull, CT)
T1 sequence (P28562 172-314): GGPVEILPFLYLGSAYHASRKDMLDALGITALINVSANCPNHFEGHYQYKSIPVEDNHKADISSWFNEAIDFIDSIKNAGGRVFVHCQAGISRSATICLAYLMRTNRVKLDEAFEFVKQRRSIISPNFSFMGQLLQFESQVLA
Experimental: Compound 1 selected from the screen was tested for activity against MKP1 and MKP5 using the malachite green assay. For MKP5-CD, the same conditions for the screening assay were used. For MKP1-CD, the following conditions were used: 1 μM MKP1-CD, 50 μM pTpY, 120 min at 30° C.

STEP-46 = target: T2, STEP-46 (Homo sapiens, UniProt P54829); experiment: STEP-46 pNPP counterscreen; type: biochemical; details: pNPP assay, FIG. 15; read-out: IC50 against STEP-46
T2 sequence (P54829 1-565): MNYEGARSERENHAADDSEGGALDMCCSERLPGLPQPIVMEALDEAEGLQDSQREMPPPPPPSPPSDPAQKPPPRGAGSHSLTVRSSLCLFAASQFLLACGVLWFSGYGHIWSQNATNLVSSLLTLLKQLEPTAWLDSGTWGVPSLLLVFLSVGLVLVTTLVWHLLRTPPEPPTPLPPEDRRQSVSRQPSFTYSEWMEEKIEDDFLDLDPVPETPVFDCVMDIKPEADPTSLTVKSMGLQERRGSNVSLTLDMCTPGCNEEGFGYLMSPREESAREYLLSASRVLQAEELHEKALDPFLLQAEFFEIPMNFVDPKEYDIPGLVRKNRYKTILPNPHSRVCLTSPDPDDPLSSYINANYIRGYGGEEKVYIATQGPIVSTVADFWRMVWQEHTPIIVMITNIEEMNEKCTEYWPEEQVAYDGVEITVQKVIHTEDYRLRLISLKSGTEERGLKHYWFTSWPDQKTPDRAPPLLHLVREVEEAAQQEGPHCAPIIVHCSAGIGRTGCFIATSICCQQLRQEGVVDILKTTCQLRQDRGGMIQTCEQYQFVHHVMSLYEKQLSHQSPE
Experimental: (§2) To test for 1 activity on STEP-46, a pNPP assay was employed with 1.5 μM STEP46 and 10 mM pNPP. After 30 min at room temperature, absorbance at 405 nm was measured. For comparison, MKP5-CD was tested in the pNPP assay under identical conditions. For PTP1B, the Millipore PTP1B assay kit (#539736) was performed as recommended by the manufacturer except that malachite green was used for detection.

Smad2 = experiment: TGF-β1-mediated Smad2 phosphorylation in wild type MEFs; type: cell-based, mouse; details: TGF-β1 1 ng/ml 10 minutes
Experimental: as §1

p38α MAPK [5] = experiment: p38α MAPK activation in C2C12 myoblasts (pMAPK/MAPK immunoblot); type: cell-based, mouse
Experimental: as §1

PTP-1B = target: T3, PTP-1B (Homo sapiens, UniProt P18031); experiment: PTP1B counterscreen (Millipore kit, malachite green detection); type: biochemical; details: FIG. 15; read-out: IC50 against PTP-1B
T3 construct: purchased Millipore 539736
T3 sequence (P18031 1-435): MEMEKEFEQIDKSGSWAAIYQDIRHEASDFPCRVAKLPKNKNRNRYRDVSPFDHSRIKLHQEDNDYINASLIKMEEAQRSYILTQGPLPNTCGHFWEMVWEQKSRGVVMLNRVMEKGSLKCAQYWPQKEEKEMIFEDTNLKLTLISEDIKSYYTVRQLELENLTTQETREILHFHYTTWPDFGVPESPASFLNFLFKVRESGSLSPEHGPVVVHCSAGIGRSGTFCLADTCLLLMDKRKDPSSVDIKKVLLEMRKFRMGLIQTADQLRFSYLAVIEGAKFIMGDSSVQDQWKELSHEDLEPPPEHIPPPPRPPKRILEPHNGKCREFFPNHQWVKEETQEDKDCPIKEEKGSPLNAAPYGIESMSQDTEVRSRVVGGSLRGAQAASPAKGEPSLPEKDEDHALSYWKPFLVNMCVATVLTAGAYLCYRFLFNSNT
Experimental: as §2

MKP5-CD [6] = target: T4, MKP5-CD (Homo sapiens, UniProt Q9Y6W6); experiment: Phosphate sensor kinetic assay with full-length p38α MAPK as substrate; type: biochemical; details: 25 μM inhibitor, varying p38α MAPK
T4 construct: The catalytic domain of MKP5 (MKP5-CD, residues 320-467) was inserted into a pET-28a vector; His-tag (N, cleaved yes); made in house; host or cells: E. coli BL21 (DE3)
T4 sequence (Q9Y6W6 320-467): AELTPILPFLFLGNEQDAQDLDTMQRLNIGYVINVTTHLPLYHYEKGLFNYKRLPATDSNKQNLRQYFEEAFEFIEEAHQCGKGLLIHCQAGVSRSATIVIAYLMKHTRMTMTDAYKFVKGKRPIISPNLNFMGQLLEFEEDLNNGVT
Experimental: The phosphate sensor protein (PS) was purchased from Life Technologies (Lot #1962036B). To characterize the activity of MKP5-CD against full length p38α MAPK, 5 nM MKP5-CD and 0.5 μM PS were combined in 50 mM Tris (pH 7.6), 25 mM NaCl, 0.01% Triton X100 and […] and added to a Corning #4511 384-well plate. Using an Echo 550 liquid handler (LabCyte Inc.), either 25 μM compound 1 or neat DMSO were added to a final DMSO concentration of 0.2%. Reactions were initiated with up to 300 μM p38α MAPK, a concentration approximately 5 times the KM of MKP5-CD39, and allowed to proceed at ambient temperature for 20 minutes. Fluorescence was continuously monitored by Tecan Infinite M1000 with excitation at 425 f 5 nm and emission at 454 f 5 nm. Raw fluorescence was converted to phosphate release using a standard curve generated the same day as kinetic experiments. The initial velocity was determined for each well based on reaction progress in the first 120 seconds. These velocities were then plotted against substrate concentration and fit to a mixed-mechanism inhibition curve.

p38α MAPK [7] = experiment: p38α MAPK phosphorylation in wild type MEFs; type: cell-based, mouse
Experimental: as §1

MKP5-CD [8] = target: T4, MKP5-CD; experiment: Microscale thermophoresis binding assay; details: fluorescently-labeled MKP5-CD, FIG. 1D; read-out: dissociation constant (Kd)
Experimental: (§3) Binding interactions between MKP5-CD and 1 were carried out using microscale thermophoresis (MST) on a Monolith NT.115Pico instrument. MKP5-CD was labeled for MST using NanoTemper Monolith NTTM Protein Labeling Kit RED-NHS 2nd Generation (#MO-L011). Briefly, MKP5-CD was transferred into the provided labeling buffer and diluted to 20 μM. Dye was added in a 2-fold molar excess and allowed to incubate 30 minutes at room temperature. Excess dye was removed using the provided column equilibrated in 50 mM Tris pH 8.0, 150 mM NaCl, 0.05% Tween-20. A fixed amount of labeled wild-type or mutant MKP5-CD was combined with up to 200 μM 1 and loaded into premium capillaries. MST experiments were carried out at 40% IR power for 20 seconds. Normalized fluorescence (Fnorm) values at a given time were plotted against inhibitor concentration, and the Kd was determined by fitting with a hyperbolic binding curve. Experiments were performed in triplicate and data are presented as means±SD.

JNK [9] = experiment: JNK phosphorylation in wild type MEFs; type: cell-based, mouse
Experimental: as §1

[10] = target: T5, MKP5-CD (catalytic domain of MKP5, residues 320-467) (Homo sapiens, UniProt Q9Y6W6); experiment: Malachite green phosphatase assay of MKP5-CD with p38α MAPK phosphopeptide substrate; type: biochemical
T5 construct: The catalytic domain of MKP5 (MKP5-CD, residues 320-467) was inserted into a pET-28a vector; His-tag (N, cleaved yes); made in house; host or cells: E. coli BL21 (DE3)
T5 sequence (Q9Y6W6 320-467): T4 sequence (Q9Y6W6 320-467)
Experimental: A small molecule collection was screened for activity against MKP5-CD using a malachite green assay in 384-well format. MKP5-CD and p38α MAPK phosphopeptide (DDE(Nle)(pT)G(pY)VATR) substrate were diluted into PTP buffer (50 mM Tris pH 7.2, 1 mM EDTA, 0.1% β-mercaptoethanol, 0.01% Triton X-100). The screen was performed in two distinct phases. An initial screen against a subset of the compound library was carried out in the following conditions: 1.5 μM MKP5-CD, 25 μM phosphopeptide, 30 min at 37° C. A second follow-up screen was performed with the following modifications: 0.5 μM MKP5-CD, 50 μM phosphopeptide, 15 min at 30° C. Test compounds (20 nL) were dispensed with either an Aquarius (Tecan) pintool system (initial phase) or Echo 550 (Labcyte) acoustic dispenser (follow-up phase). In both phases, the test compound concentration was 20 μM in the 10 μL reaction and the final DMSO was 0.2%. […] The plate was incubated for 10-15 min at room temperature to allow color development and absorbance at 620 nm measured. The signal-to-background (S/B) ratio was calculated from the mean absorbance of vehicle-treated wells with and without enzyme (negative and positive controls; n=32 per condition). Percent inhibition of test wells was calculated from the mean positive and negative controls on each plate. […]

[11] = tested on: MKP5-CD Y435A, Y435S, Y435W mutants; experiment: Binding and inhibition of Tyr435 mutant MKP5-CD constructs; type: biochemical; details: FIG. 3C
Experimental: The catalytic domain of MKP5 (MKP5-CD, residues 320-467) was inserted into a pET-28a vector for expression. Mutant constructs were generated according to the QuikChange II (Agilent) site directed mutagenesis protocol. Constructs were transformed into BL21 (DE3) cells and grown in LB containing 100 μg/mL kanamycin to an OD of 0.8. Protein expression was induced with 1 mM IPTG, and cells were harvested after overnight incubation at 22° C.
as §3, with “Experiments were performed in triplicate and data are presented as means±SD.” left out

`CSc1scc2c1-c1nc(SCC(=O)C(C)(C)C)ncc1CC2` [Compound 1, 3,3-Dimethyl-1-((9-(methylthio)-5,6-dihydrothieno[3,4-h]quinazolin-2-yl)thio)butan-2-one] was tested. Which JNK activation (JNK [1]; 24 h) did it give?
Its JNK activation is “increased upon treatment of C2C12 myoblasts but with less effectiveness as compared with p38 MAPK”.

And the “induction of JNK activity” value (JNK [1]; highest concentration)?
Its value is 1.4 fold.

And the “activation status of ERK1/2” value (ERK1/2 [2])?
Its value is “did not alter”.

And the “phosphorylation of ERK1/2” value (ERK1/2 [3])?
The value was “not ERK1/2”.

What about the IC50 ([4]; FIG. 1F, read-out: IC50 towards the catalytic domain of MKP1) of the same compound?
The IC50 was > 60 µM.

And the “reduction in potency for MKP1 relative to MKP5” value ([4]; MKP1 versus MKP5)?
The value was 16 fold.

What about the IC50 (STEP-46) of the same compound?
Its IC50 is > 200 µM.

What about the “TGF-β1-mediated Smad2 phosphorylation” value (Smad2) of the same compound?
Its value is “inhibited”.

What about the “activation of p38α MAPK” value (p38α MAPK [5]; 24 h) of the same compound?
The value was “increased in a dose-dependent manner”.

And the “induction of p38α MAPK activity” value (p38α MAPK [5]; highest concentration)?
The value was 2.0 fold.

And the IC50 (PTP-1B)?
The IC50 was > 100 µM.

What about the mode of inhibition (MKP5-CD [6]) of the same compound?
Its mode of inhibition is “mixed competitive mode of inhibition”.

And the “α of mixed-mechanism inhibition fit” value (MKP5-CD [6])?
Its value is “≈ 4.6”.

What about the “phosphorylation of p38α MAPK” value (p38α MAPK [7]) of the same compound?
The value was “dose-dependent increase”.

And the Kd (MKP5-CD [8])?
The Kd was 1000 ± 200 nM.

What about the “phosphorylation of JNK” value (JNK [9]) of the same compound?
The value was “dose-dependent increase”.

And the IC50 [10]?
Its IC50 is ~4.2 µM.

What about the IC50 ([10]; resynthesized compound, p38α MAPK phosphopeptide substrate, FIG. 1E, read-out: IC50 against MKP5-CD) of the same compound?
The IC50 was 3.9 ± 0.6 µM.

And the “binding to and inhibition of Tyr435 mutants” value [11]?
The value was “only capable of binding to and inhibiting the activity of the Y435W mutant”.
